Experimental data reported in ChEMBL document CHEMBL1201862, “PubChem BioAssay data set” (2004).
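Cells were grown in 96-well plates and exposed to each compound for 48 hours at five concentrations; endpoints were interpolated linearly between bracketing concentrations, or set to the highest concentration if not reached. Here, GI50 denotes the concentration required for 50% inhibition of growth.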 Active and inactive are the calls of the source. Cut-off read from the data, not from the text of the source: active = GI50 up to about 1.1 µM and inactive = higher.

What was measured:
Assay in all cases: NCI-60 cell line screen, 48 h
[1] = test system: 786-0
[2] = test system: ACHN
[3] = test system: EKVX
[4] = test system: HCC 2998
[5] = test system: HCT-116
[6] = test system: HOP-92
[7] = test system: Hs-578T
[8] = test system: K562
[9] = test system: M14
[10] = test system: MOLT-4
[11] = test system: Malme-3M
[12] = test system: NCI-H522
[13] = test system: OVCAR-3
[14] = test system: OVCAR-5
[15] = test system: RPMI-8226
[16] = test system: SF-295
[17] = test system: SF-539
[18] = test system: SW-620
[19] = test system: TK-10
[20] = test system: U-251

SMILES | GI50 [1] | GI50 [2] | GI50 [3] | GI50 [4] | GI50 [5] | GI50 [6] | GI50 [7] | GI50 [8] | GI50 [9] | GI50 [10] | GI50 [11] | GI50 [12] | GI50 [13] | GI50 [14] | GI50 [15] | GI50 [16] | GI50 [17] | GI50 [18] | GI50 [19] | GI50 [20]
COc1ccc2cc(-c3ccc(OC)c(OC)c3)c(=O)oc2c1 | 52 µM (inactive) | > 100 µM (inactive) | > 100 µM (inactive) | > 100 µM (inactive) | > 100 µM (inactive) | > 100 µM (inactive) | 29.3 µM (inactive) | > 100 µM (inactive) | > 100 µM (inactive) | > 100 µM (inactive) | > 100 µM (inactive) | > 100 µM (inactive) | > 100 µM (inactive) | > 100 µM (inactive) | > 100 µM (inactive) | 53.1 µM (inactive) | > 100 µM (inactive) | > 100 µM (inactive) | > 100 µM (inactive) | 57.4 µM (inactive)
C=C1C(=O)O[C@@H]2/C=C(C)/C=C\[C@@H]3O[C@@]3(C)C[C@@H](O)C12 (stereo not given in full) | 8.69 µM (inactive) | 5.24 µM (inactive) | 3.89 µM (inactive) | 18.9 µM (inactive) | 8.13 µM (inactive) | 5.98 µM (inactive) | 39.2 µM (inactive) | 3.5 µM (inactive) | 18.3 µM (inactive) | 5.14 µM (inactive) | 12.7 µM (inactive) | 4.23 µM (inactive) | 14.1 µM (inactive) | 33.2 µM (inactive) | 3.74 µM (inactive) | 49.7 µM (inactive) | 7.73 µM (inactive) | 4.02 µM (inactive) | 3.81 µM (inactive) | 17.8 µM (inactive)
CCOC(=O)C1(C(=O)OCC)[C@H](c2ccccc2)C2=NO[C@@H]3CCC[C@H]1[C@H]23 | 82.2 µM (inactive) | 84.3 µM (inactive) | 27.9 µM (inactive) | 22.1 µM (inactive) | 54.1 µM (inactive) | 54 µM (inactive) | > 100 µM (inactive) | 21.3 µM (inactive) | 36 µM (inactive) | 15.4 µM (inactive) | > 100 µM (inactive) | 42.9 µM (inactive) | 25.1 µM (inactive) | 65.6 µM (inactive) | 14.6 µM (inactive) | 33.4 µM (inactive) | > 100 µM (inactive) | 58.1 µM (inactive) | 63.2 µM (inactive) | 49.9 µM (inactive)
CCCCC1Cc2cc(O)ccc2-c2nc3cc(O)ccc3n21.CCCCC1Cc2cc(O)ccc2-c2nc3ccc(O)cc3n21 (stereo not given) | 19 µM (inactive) | 13.9 µM (inactive) | 17.2 µM (inactive) | 14.3 µM (inactive) | 14 µM (inactive) | 4.28 µM (inactive) | 16.3 µM (inactive) | 10.7 µM (inactive) | 15.3 µM (inactive) | 13.6 µM (inactive) | 21.8 µM (inactive) | 11.1 µM (inactive) | 21.7 µM (inactive) | 16.6 µM (inactive) | 12.4 µM (inactive) | 15.2 µM (inactive) | 14.8 µM (inactive) | 16.9 µM (inactive) | 18.6 µM (inactive) | 14.4 µM (inactive)
CC(=O)NC1C(OCc2ccccc2)OC(CO)C(O)C1OC(C)C(=O)NC(C)C(=O)N[C@@H](CCC(=O)OCCCNC1c2ccccc2Nc2cccc([N+](=O)[O-])c21)C(N)=O (stereo not given in full) | < 0.01 µM (active) | < 0.01 µM (active) | 0.0135 µM (active) | < 0.01 µM (active) | < 0.01 µM (active) | < 0.01 µM (active) | 0.0216 µM (active) | < 0.01 µM (active) | < 0.01 µM (active) | 0.0102 µM (active) | < 0.01 µM (active) | < 0.01 µM (active) | < 0.01 µM (active) | 0.0223 µM (active) | < 0.01 µM (active) | 0.0155 µM (active) | < 0.01 µM (active) | < 0.01 µM (active) | < 0.01 µM (active) | < 0.01 µM (active)
CCCCCCCCCC[C@@H](O)[C@H]1CC[C@@H]([C@H]2CC[C@H]([C@H](O)CCCCCCCCCC[C@@H]3CC(CC(C)=O)C(=O)O3)O2)O1 (stereo not given in full) | 25.8 µM (inactive) | 1.17 µM (inactive) | 0.372 µM (active) | 19.1 µM (inactive) | 2.68 µM (inactive) | 17 µM (inactive) | 1.04 µM (active) | 1.84 µM (inactive) | 6.43 µM (inactive) | 4.13 µM (inactive) | 15.1 µM (inactive) | 12.8 µM (inactive) | 3.75 µM (inactive) | 48.1 µM (inactive) | 2.39 µM (inactive) | 1.77 µM (inactive) | 7.05 µM (inactive) | 4.4 µM (inactive) | 4.73 µM (inactive) | 2.65 µM (inactive)
Sc1nn2c(Cc3ccccc3)nnc2s1 | > 100 µM (inactive) | > 100 µM (inactive) | > 100 µM (inactive) | > 100 µM (inactive) | > 100 µM (inactive) | > 100 µM (inactive) | > 100 µM (inactive) | > 100 µM (inactive) | > 100 µM (inactive) | > 100 µM (inactive) | > 100 µM (inactive) | > 100 µM (inactive) | > 100 µM (inactive) | > 100 µM (inactive) | > 100 µM (inactive) | > 100 µM (inactive) | > 100 µM (inactive) | > 100 µM (inactive) | > 100 µM (inactive) | > 100 µM (inactive)
